Experimental data reported in US6121320A, “Combination anti-leukemic therapy by utilizing suramin and biologic response modifiers” (The University of Kentucky Research Foundation, priority 1998, dated 2000).
Like-named read-outs stand apart in the source and are kept apart here.

Legend:
[1] = tested on: HL-60; test: HL-60 leukemia cell proliferation (MTT), single agents and combinations, CI-isobologram analysis; format: cell-based, human
Procedure: (§1) Assays of proliferation consist of cell proliferation (3H-thymidine) assay as previously described or the MTT assay after 3-5 days of exposure to the agents. Cell proliferation is assayed using a modification of the original MTT calorimetric assay described by Mosmann (53). To better delineate the issues of proliferation (and inhibition thereof) versus differentiation, which is induced by certain of the agents being proposed for testing, an alternative method would utilize simple cell counting (Courter, Inc.) of aliquots at 3 and 5 days of continuous exposure with concomitant analysis of induced differentiation by cell morphology (NBT-positive) conducted. The percentage of differentiated cells in liquid culture determined by the NBT reduction test (as described, (54) allows for an estimate of the total number of cells which are still blast cells and therefore considered capable of continued leukemogenic growth. The most promising combinations are used to examine de novo acute myeloid leukemia patient samples in like fashion.
The antigrowth factor activity of suramin was tested alone and in combination with all-trans retinoic acid (ATRA) against the human leukemic line HL-60 or its ATRA resistant subclone, HL-60R, to assess if an agent with the ability to interrupt putative autocrine driven leukemic cell growth could reestablish sensitivity to ATRA. […] Synergy or antagonism between combinations was then assessed using a combination-index CI-isobolo gram method.
Cell lines chosen for this study include the ATRA sensitive human acute leukemia HL-60 and the ATRA resistant subclone, HL-60R. While originally described as an acute promyelocytic cell line, more recent work categorizes this line as an acute myelogenous leukemia. The sensitivity of these cell lines to ATRA and suramin alone as single agents has been assessed. […] The assays of proliferation consist of cell proliferation after 3-5 days of exposure to the agents. Cell proliferation is assayed using a modification of the original MTT calorimetric assay described by Mossman, et al. In similar fashion, a dose response curve to cytosine arabinoside has been generated. Using the IC50 values for each agent alone allows selection of reasonable drug combinations. The data software program, "Dose effect analysis with microcomputers" (BioSoft, Inc.) developed by Dr. Chou, et al. is utilized. This computer analysis program allows the assessment of drug combinations for synergistic, additive, or antagonistic interactions.

[2] = tested on: acute promyelocytic leukemia (APL); settings: cited from earlier work
[3] = target: rhGM-CSF (Homo sapiens, UniProt P04141); test: Competition for nucleotide photoprobe incorporation into rhGM-CSF; format: binding
Sequence of rhGM-CSF (P04141 18-144): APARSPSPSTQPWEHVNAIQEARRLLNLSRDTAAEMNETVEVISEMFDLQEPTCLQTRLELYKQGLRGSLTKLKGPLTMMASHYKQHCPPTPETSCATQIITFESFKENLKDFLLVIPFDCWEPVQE

[4] = tested on: Mo7E; test: Proliferation of GM-CSF dependent Mo7E cells; format: cell-based, human; settings: read-out: Half-maximal inhibition of Mo/7E growth (GM-CSF dependent)
Source text: control. Similarly, cell proliferating of GM-CSF
dependent (Mo7E) and autonomously proliferation (GM-CSF
independent) human leukemia cells (HL-60) gave half-
maximal inhibition of growth. Results are expressed as […]

[5] = tested on: HL-60R; test: HL-60R (ATRA resistant subclone) proliferation (MTT), single agents and combinations; format: cell-based, human
Procedure: as §1, with “fashion. […]” for “fashion.”
Cell lines chosen for this study include the ATRA sensitive human acute leukemia HL-60 and the ATRA resistant subclone, HL-60R. […] The sensitivity of these cell lines to ATRA and suramin alone as single agents has been assessed. […]

[6] = tested on: NB4; test: Activity against NB4 leukemia cells; format: cell-based, human
Procedure: While originally described as an acute promyelocytic cell line, more recent work categorizes this line as an acute myelogenous leukemia.
as §1

[7] = tested on: HL-60; settings: HL-60 in vitro, reference 48; cited from earlier work
[8] = tested on: follicular lymphoma; settings: evaluable follicular lymphoma patients; cited from earlier work
[9] = Homo sapiens, HL-60, 120 h, read-out: Fractional Inhibition
[10] = photoprobe incorporation into rhGM-CSF compared to control, read-out: Half-maximal inhibition of nucleotide binding
[11] = Homo sapiens, HL-60, autonomously proliferating cells, read-out: Half-maximal inhibition of HL-60 growth (GM-CSF independent)

With `CC1=C(/C=C/C(C)=C/C=C/C(C)=C/C(=O)O)C(C)(C)CCC1` [ATRA, all-trans retinoic acid] the “m (slope of the median-effect plot)” value ([1]; HL60, 5 days exposure) was “.2729”, the IC50 ([1]; Homo sapiens, HL-60, 120 h, read-out: Dm (antilog of x-intercept of the median-effect plot, the potency (IC50))) was 0.00022 µM and the inhibition at 0.001 µM [1, 9] was 56.1%. The inhibition at 0.01 µM [1, 9] was 77.7%, the inhibition at 0.02 µM [1, 9] was 79% and the inhibition at 0.04 µM [1, 9] was 82.3%. The inhibition at 0.08 µM [1, 9] was 82.6%, the inhibition at 0.16 µM [1, 9] was 83.5% and the “Patients resistant to ATRA at diagnosis or relapsing” value ([2]; APL) was 30-40%. For the same molecule, the Complete remission rate ([2]; ATRA as a single agent in APL) was no less than 70%, the “Patients with long term remissions” value ([2]; ATRA treatment followed by chemotherapy) was 60% and the “Patients with ATRA syndrome” value ([2]; subset of APL patients, fever, respiratory distress, chest x-ray abnormalities, weight gain) was 5-20%.

With `O=C(Nc1cccc(C(=O)Nc2ccc(S(=O)(=O)O)c3cc(S(=O)(=O)O)cc(S(=O)(=O)O)c23)c1)Nc1cccc(C(=O)Nc2ccc(S(=O)(=O)O)c3cc(S(=O)(=O)O)cc(S(=O)(=O)O)c23)c1` [NF023] the IC50 [3, 10] was 5000 nM, the IC50 ([4]; Homo sapiens, Mo7e) was 102 µM and the IC50 [1, 11] was 175 µM.

For `O=C(Nc1cc(C(=O)Nc2ccc(S(=O)(=O)O)cc2)cc(C(=O)Nc2ccc(S(=O)(=O)O)cc2)c1)Nc1cc(C(=O)Nc2ccc(S(=O)(=O)O)cc2)cc(C(=O)Nc2ccc(S(=O)(=O)O)cc2)c1` [NF110], the IC50 [3, 10] was 1500 nM, the IC50 [4] was 52 µM and the Enhanced activity ([1]; against HL-60, relative to suramin) was 5-10 fold. For the same molecule, the IC50 ([1]; autonomously proliferating cells, read-out: Half-maximal inhibition of HL-60 growth (GM-CSF independent)) was 6 µM and the Enhanced activity ([5]; against HL-60R, relative to suramin) was 5-10 fold.

In the case of `Cc1ccc(C(=O)Nc2ccc(S(=O)(=O)O)c3cc(S(=O)(=O)O)cc(S(=O)(=O)O)c23)cc1NC(=O)c1cccc(NC(=O)Nc2cccc(C(=O)Nc3cc(C(=O)Nc4ccc(S(=O)(=O)O)c5cc(S(=O)(=O)O)cc(S(=O)(=O)O)c45)ccc3C)c2)c1` [suramin], the IC50 [3] is reported as 2500 nM, the IC50 ([4]; Homo sapiens, Mo7e) is reported as 68 µM and the “m (slope of the median-effect plot)” value ([1]; HL60, 5 days exposure) is reported as 1.725. The “Inhibition of growth, in words” value ([1]; HL-60) was “active”, the IC50 ([1]; Homo sapiens, HL-60, 120 h, HL60, 5 days exposure, doses printed in μM, read-out: Dm (antilog of x-intercept of the median-effect plot, the potency (IC50))) was 38.7 µM and the inhibition at 3.5 µM ([1]; Homo sapiens, HL-60, 120 h, suramin 3.5 μM, HL60, 5 days exposure, read-out: Fractional Inhibition) was 2%. It also gave an inhibition at 7 µM ([1]; Homo sapiens, HL-60, 120 h, suramin 7.0 μM, HL60, 5 days exposure, read-out: Fractional Inhibition) of 4.7%, an inhibition at 14 µM ([1]; Homo sapiens, HL-60, 120 h, suramin 14.0 μM, HL60, 5 days exposure, read-out: Fractional Inhibition) of 9.3% and an inhibition at 28 µM ([1]; Homo sapiens, HL-60, 120 h, suramin 28.0 μM, HL60, 5 days exposure, read-out: Fractional Inhibition) of 41.9%. For the same molecule, the inhibition at 56 µM ([1]; Homo sapiens, HL-60, 120 h, suramin 56.0 μM, HL60, 5 days exposure, read-out: Fractional Inhibition) was 67.8%, the IC50 [1, 11] was 38 µM and the “Inhibition of growth, in words” value ([5]; HL-60R) was “active”. For the same molecule, the “Activity, in words” value [6] was “active”, the “Suppression of proliferation, in words” value [7] was “strongly suppress” and the “Patients achieving partial remission” value [8] was “five of nine”.
